Here are results for 56 molecules from PubChem BioAssay AID179 (DTP/NCI, 2004).

The source made the active and inactive calls.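 The calls were made as follows: active = compounds giving half or more protection of infected cells from virus-caused growth loss, again on retest; inactive = the rest.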

The assay has as its system CEM cells HIV-1 protection, formazan growth assay. The experiment in a line: NCI AIDS Antiviral Assay. The following applies: for IC50: measured here: growth of uninfected CEM cells. In a few lines: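 Protection of CEM cells against HIV-1 was scored from cell growth (soluble formazan) across five concentrations, with parallel uninfected cells. Lack of protection may reflect toxicity.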

What is called EC50 is the concentration needed to bring the measured effect to its halfway point. By IC50 is commonly meant the concentration at which inhibition is half-maximal. A low value points to greater potency in that assay. For `COc1ccccc1C1=NC(C)(C)CO1`, the EC50 is over 1230 µM and the half-maximal inhibitory concentration (IC50) was over 1230 µM.
With `Cc1cc(S(=O)(=O)Nc2n[nH]c(Nc3ccccc3)n2)c(SSc2cc(Cl)c(C)cc2S(=O)(=O)Nc2n[nH]c(Nc3ccccc3)n2)cc1Cl`, the EC50 is 83.2 µM and the concentration for half-maximal inhibition (IC50) is 95.5 µM.
Turning to `NCCC1(N)CCNCC1`, the result was inactive.
Turning to `CCCC(=O)Oc1ccc2c(C)cc(=O)oc2c1OC(=O)CCC`, the EC50 is over 200 µM and the IC50 is 77.6 µM.
As for `CC(=O)OC[C@@H](OC(C)=O)[C@H](OC(C)=O)[C@@H]1OC(C)(C)O[C@@H]1C1SCCCS1`, the EC50 is over 200 µM and the half-maximal inhibitory concentration (IC50) was over 200 µM.
Turning to `C=C=CC(C)(O)c1ccc(-c2ccccc2)cc1` (stereo unspecified), the EC50 is over 191 µM and the concentration for half-maximal inhibition (IC50) was found to be 45.7 µM.
Take `Oc1c(CN2CCCCC2)ccc2ccccc12`: the EC50 is over 200 µM and the IC50 amounted to 186 µM.
For `O=C(O)CCC(=O)NCCOC(=O)CCC(=O)O` the same measures were over 955 µM and over 955 µM.
For `N#CCC(=O)N/N=C(/C(=O)Nc1ccccc1)C1C(=O)N(c2ccccc2)N=C1N` (stereo unspecified) the same measures were over 170 µM and over 170 µM.
For `COC(=O)c1ccc(OCc2ccc3nc(OC)c(OC)nc3c2)cc1` the same measures were over 4.07 µM and over 4.07 µM.
Turning to `OCCCCCCOc1ccc(-c2cc(-c3ccccn3)nc(-c3ccccn3)c2)cc1`, the EC50 is over 12.3 µM and the half-inhibitory concentration (IC50) came out at 1.91 µM.
For the molecule `CCOC(=O)/N=c1/nc(N(C)C)ss1`, the result was inactive.
Take `CN1CCCC(=O)C1CC[C@H]1C(=O)CCCN1C` (stereo partly specified): the EC50 is over 269 µM and the IC50 is over 269 µM.
As to `CONC1CC(n2cc(C)c(=O)[nH]c2=O)OC1CO` (stereo unspecified), the EC50 was over 200 µM and the IC50 is over 200 µM.
As for `O=C(NNc1nc2ccc(Cl)cc2s1)c1cnc2n(c1=O)CCS2`, the EC50 is over 200 µM and the half-inhibitory concentration (IC50) worked out at 102 µM.
Turning to `CCN=C(CC(=O)C12CC3CC(CC(C3)C1)C2)N(CC)CC`, the outcome was inactive.
For the molecule `CCOC(=O)/C(=C/n1c(=S)[nH]c2ccc([N+](=O)[O-])cc21)C(=O)c1ccccc1`, the EC50 was over 200 µM and the half-inhibitory concentration (IC50) was 141 µM.
In the case of `COc1c(Cl)cc(Cl)cc1S(=O)O`, the result was inactive.
Turning to `NCc1ccccc1C1CSCSC1`, the EC50 was over 575 µM and the concentration for half-maximal inhibition (IC50) was 288 µM.
Turning to `CCOC(=O)c1c(SC(=O)c2cc(OC)c(OC)c(OC)c2)n(-c2ccccc2)c(=S)n(-c2ccccc2)c1=O`, the EC50 is over 200 µM and the 50% inhibitory concentration (IC50) was found to be 32.4 µM.
As for `CCOC(=O)c1nc2ccc(C(F)(F)F)cc2nc1Nc1cc(OC)c(OC)c(OC)c1`, the EC50 is over 200 µM and the concentration for half-maximal inhibition (IC50) was over 200 µM.
As to `COc1ccc(-n2c(=O)[nH]n(C(C)=O)c2=O)cc1`, the EC50 was over 200 µM and the IC50 was over 200 µM.
As for `O=C1COC(c2ccccc2)C(c2ccccc2)(c2ccccc2)O1` (stereo unspecified), the EC50 was over 15.8 µM and the 50% inhibitory concentration (IC50) was over 15.8 µM.
`Cc1ccc(C(CO)(CO)OC(CO)(CO)c2ccc(C)c(C)c2)cc1C`: the EC50 was over 200 µM and the IC50 is over 200 µM.
In the case of `N#Cc1ccc(N2CCOCC2)cc1`, the EC50 was 195 µM and the IC50 is over 200 µM.
`O=C1C(=O)c2ccccc2C(O)=C1Nc1ccc(Cl)cc1`: the outcome was inactive.
Regarding `OC1C2CCC3C2CC(C(O)(c2ccccc2)c2ccccc2)C13` (stereo unspecified), the EC50 is over 200 µM and the IC50 came out at 79.4 µM.
On to `CCOC(=O)CP(=S)(S)c1ccccc1` (stereo unspecified), for which the EC50 was over 5500 µM and the IC50 was over 5500 µM.
For `CC1CC[N+]2(C)CCCC12` (stereo unspecified), the EC50 was over 1120 µM and the half-inhibitory concentration (IC50) was over 1120 µM.
Turning to `NC(c1ccccc1)P(=O)(O)O` (stereo unspecified), the EC50 was over 200 µM and the concentration for half-maximal inhibition (IC50) is over 200 µM.
As for `OCc1ccc2ccc3ccc(CO)nc3c2n1`, the EC50 is over 389 µM and the 50% inhibitory concentration (IC50) came out at 263 µM.
For the molecule `CC(C)=CCN1c2ccc(Cl)cc2NC(=O)CC1C` (stereo unspecified), the EC50 was over 87.1 µM and the IC50 was 49 µM.
For `COC(=O)c1cc(C(=CCCCC=O)c2cc(Cl)c(OC)c(C(=O)OC)c2)cc(Cl)c1OC` the same measures were over 200 µM and 11.5 µM.
`CC1C2(C)OC(=N)C(C#N)(C(c3cccc([N+](=O)[O-])c3)O2)C1(C#N)C#N` (stereo unspecified): the EC50 was over 200 µM and the IC50 was 11.7 µM.
For `CC1(C)CNC(=O)C2(C=NC(C)(C)CNC(=O)C3(C=N1)CCCO3)CCCO2` (stereo unspecified) the same measures were over 25.1 µM and over 25.1 µM.
With `N#C/C(=C\c1cc(Br)c(O)c(Br)c1)c1cccnc1`, the EC50 was over 100 µM and the half-maximal inhibitory concentration (IC50) is 44.7 µM.
For `CN1CN(c2ccccc2)C2(CCN(CC(C)(c3ccc(F)cc3)C3OCCCO3)CC2)C1=O` (stereo unspecified) the same measures were over 200 µM and 107 µM.
Regarding `Cc1cc(O)cc2c1CC=C1C(=C2)C(=O)C(=O)C(C(C)C)=C1O`, the outcome was inactive.
Regarding `COC(=O)C(=O)C(C(=O)C1=NS(=O)(=O)c2cc(S(N)(=O)=O)c(Cl)cc2N1)c1nc2ccc(C(=O)c3ccccc3)cc2[nH]c1=O` (stereo unspecified), the EC50 is over 195 µM and the concentration for half-maximal inhibition (IC50) is 49 µM.
For `O=S(=O)(O)NC1CCCCC1` the same measures were over 200 µM and over 200 µM.
Consider `C[Si](C)(C)/N=C1\N2C(=NC1(C(F)(F)F)C(F)(F)F)Sc1ccccc12`, for which the outcome was inactive.
For the molecule `COc1cc2c(cc1OC)C(CCc1ccc(Cl)cc1)N(C)CC2` (stereo unspecified), the EC50 is over 200 µM and the IC50 is 91.2 µM.
With `O=c1[nH]oc(NS(=O)(=O)c2ccccc2)c1C1CCCCC1`, the EC50 is over 200 µM and the IC50 turned out to be 97.7 µM.
Consider `CCCCCCCCCCCc1c(O)c(O)cc2nc3cc(C(=O)NC(C(=O)O)C(C)C)ccc3nc12` (stereo unspecified), for which the EC50 is over 14.1 µM and the 50% inhibitory concentration (IC50) is over 14.1 µM.
Consider `O=C1Nc2ccccc2C12CCNC2Cc1ccccc1` (stereo unspecified), for which the EC50 is over 794 µM and the half-inhibitory concentration (IC50) is 263 µM.
Consider `CC(C)OP(=O)(OC(C)C)C(=Nc1ccncc1)NNc1ccc([N+](=O)[O-])cc1`, for which the EC50 was over 61.7 µM and the IC50 was over 61.7 µM.
On to `CSCCC(C(=O)O)N(CC1(O)OCC(O)C(O)C1O)N=O` (stereo unspecified), for which the result was inactive.
Regarding `NCCS/C=C\C(=O)OCc1ccc(Br)cc1`, the EC50 is over 708 µM and the 50% inhibitory concentration (IC50) came to 64.6 µM.
With `Oc1cccc2ccc(Br)nc12`, the EC50 is over 200 µM and the IC50 came to 178 µM.
In the case of `CCOC(=O)C1=C(Nc2cccc3ccccc23)OCC1=O`, the result was inactive.
Regarding `O=C1OCCN(c2cccc(Cl)c2)CCO1`, the result was inactive.
In the case of `O=c1[nH]c(=S)[nH]c2c1sc(=S)n2-c1ccccc1`, the EC50 was over 89.1 µM and the IC50 was over 89.1 µM.
For the molecule `O=C(CCC(=O)Nc1ccc(Cl)c(Cl)c1)CC(=O)c1ccc(Br)cc1`, the EC50 was over 282 µM and the IC50 was over 282 µM.
For `CCO/C=C(\C(=O)OC)S(=O)(=O)c1ccc(C)cc1`, the EC50 is over 200 µM and the IC50 was over 200 µM.
In the case of `C=C1C2CCC3C(CCC4C35CCC[C@]4(C)CN3CCO[C@H]35)(C2)[C@@H]1O` (stereo partly specified), the result was inactive.
For `CCCC(C)C(=Nc1ccc(Cl)c(Cl)c1)N(C)C` (stereo unspecified), the EC50 was over 200 µM and the IC50 turned out to be 28.2 µM.
